Measured values published in EP1433789A1, “Pyrrolopyrazines and their use as selective apoptosis inducers” (Aponetics AG, priority 2002, dated 2004).

How the values were obtained:
A20 [1] = assay: AnnexinV/7-AAD staining; format: cell-based, mouse; conditions: A20, 10 µM, 24 h treatment
Procedure: (§1) Adherent cells (1 - 2*10^5) are 24 h prior to compound treatment seeded into 24 well tissue culture plates. Suspension cells are pipetted into P-tubes immediately before treatment. Test compounds are added leading to a final concentrations of 10 µM. After 24 h treatment cells are harvested (in case of adherent cells by trypsinization) and transferred to FACS tubes (BD Biosciences). After centrifugation and removal of the supernatant, 100 µl complete medium containing AnnexinV-GST (10 µg) is added, mixed and incubated at 4°C for 30 minutes. Subsequently, the cells are washed once with medium and incubated with 100 µl anti-GST Alexa 488 (Molecular Probes A-11131) in medium diluted 1:500 for 30 minutes at 4°C. Then, cells are washed once and stained with 1 µg/ml 7-aminoactinomycin D (7-AAD) (Molecular Probes A-1310) in 250 µl medium and analyzed on the FACSCalibur™. AnnexinV is measured in FL1 whereas 7-AAD is measured in FL3. In Table 5 the percentage of positively stained cells after treatment with the respective compounds are indicated. The following scores are used: Score 0 relates to less than 10%, score 1 relates to more than 10% but less than 50% and score 2 relates to more than 50% positivity.

HeLa [2] = assay: Hoechst 33342 nuclear staining (Table 3); format: cell-based, human; parameters: key: 0 relating to no activity; 1 relating to weak activity comprising less than 50% of the cells; score 2 relating to strong activity comprising more than 50% of the cells
Procedure: (§2) This assay is performed in 96 well tissue culture plates. Appropriate number of cells (adherent cells: 3 - 5*10^3, suspension cells: 8 - 10*10^3) are being seeded out in 80 µl complete medium. Adherent cells are incubated for 24 h for proper spreading out before addition of test compounds while suspension cells are immediately treated with test compounds after seeding out. The test compounds are added in 20 µl complete medium containing max 5% DMSO. The final compound concentrations in the assays are 10 µM, 3 µM,1 µM and 0.3 µM, respectively. After 24 h or 48 h incubation at culture conditions, 10 µl medium containing Hoechst 33342 dye (Sigma B-2261) at 2-5 µg/ml are added to each well. The assay plates are then further incubated for 30 minutes and subsequently analyzed with a standard inverted fluorescence microscope. The readout allows the determination of the fraction of apoptotic nuclei as well as other morphological criteria specific for apoptosis as a function of the treatment. The following scores are used: 0 relating to no activity, 1 relating to weak activity comprising less than 50% of the cells and score 2 relating to strong activity comprising more than 50% of the cells.

KB = assay: Hoechst 33342 nuclear staining (Table 3); format: cell-based, human; parameters: key: 0 relating to no activity; 1 relating to weak activity comprising less than 50% of the cells; score 2 relating to strong activity comprising more than 50% of the cells
Procedure: as §2

K562 = assay: Hoechst 33342 nuclear staining (Table 3); format: cell-based, human; parameters: key: 0 relating to no activity; 1 relating to weak activity comprising less than 50% of the cells; score 2 relating to strong activity comprising more than 50% of the cells
Procedure: as §2

Jurkat [3] = assay: Hoechst 33342 nuclear staining (Table 3); format: cell-based, human; parameters: key: 0 relating to no activity; 1 relating to weak activity comprising less than 50% of the cells; score 2 relating to strong activity comprising more than 50% of the cells
Procedure: as §2

HeLa [4] = assay: AnnexinV/7-AAD staining; format: cell-based, human; conditions: 10 µM, 24 h treatment
Procedure: as §1

Jurkat [5] = assay: AnnexinV/7-AAD staining; format: cell-based, human; conditions: 10 µM, 24 h treatment
Procedure: as §1

Ramos [6] = assay: AnnexinV/7-AAD staining; format: cell-based, human; conditions: 10 µM, 24 h treatment
Procedure: as §1

A20 [7] = assay: Hoechst 33342 nuclear staining (Table 3); format: cell-based, mouse; parameters: key: 0 relating to no activity; 1 relating to weak activity comprising less than 50% of the cells; score 2 relating to strong activity comprising more than 50% of the cells
Procedure: as §2

Ramos [8] = assay: Hoechst 33342 nuclear staining (Table 3); format: cell-based, human; parameters: key: 0 relating to no activity; 1 relating to weak activity comprising less than 50% of the cells; score 2 relating to strong activity comprising more than 50% of the cells; conditions: 24h
Procedure: as §2

Molecule: CC1(C)Cc2ccccc2-c2cc3nc4ccccc4nc3n21 [No. 1, 6,6-Dimethyl-5,6-dihydro-6a,7,12-triaza-dibenzo[a,h]fluorene]
- percentage of positively stained cells (AnnexinV/7-AAD staining) (A20 [1]): 0 (Score 0 relates to less than 10%)
- Hoechst 33342 nuclear staining (HeLa [2]; 24h, conc 0.3 (µM)): 0
- Hoechst 33342 nuclear staining (HeLa [2]; 24h, conc 1 (µM)): 0
- Hoechst 33342 nuclear staining (HeLa [2]; 24h, conc 3 (µM)): 0
- Hoechst 33342 nuclear staining (HeLa [2]; 24h, conc 10 (µM)): 0
- Hoechst 33342 nuclear staining (HeLa [2]; 48h, conc 0.3 (µM)): 0
- Hoechst 33342 nuclear staining (HeLa [2]; 48h, conc 1 (µM)): 2 (score 2 relating to strong activity comprising more than 50% of the cells)
- Hoechst 33342 nuclear staining (HeLa [2]; 48h, conc 3 (µM)): 2 (score 2 relating to strong activity comprising more than 50% of the cells)
- Hoechst 33342 nuclear staining (HeLa [2]; 48h, conc 10 (µM)): 2 (score 2 relating to strong activity comprising more than 50% of the cells)
- Hoechst 33342 nuclear staining (KB; 24h, conc 0.3 (µM)): 0
- Hoechst 33342 nuclear staining (KB; 24h, conc 1 (µM)): 0
- Hoechst 33342 nuclear staining (KB; 24h, conc 3 (µM)): 0
- Hoechst 33342 nuclear staining (KB; 24h, conc 10 (µM)): 0
- Hoechst 33342 nuclear staining (KB; 48h, conc 0.3 (µM)): 0
- Hoechst 33342 nuclear staining (KB; 48h, conc 1 (µM)): 0
- Hoechst 33342 nuclear staining (KB; 48h, conc 3 (µM)): 0
- Hoechst 33342 nuclear staining (KB; 48h, conc 10 (µM)): 0
- Hoechst 33342 nuclear staining (K562; K562, 24h, conc 0.3 (µM)): 0
- Hoechst 33342 nuclear staining (K562; K562, 24h, conc 1 (µM)): 0
- Hoechst 33342 nuclear staining (K562; K562, 24h, conc 3 (µM)): 0
- Hoechst 33342 nuclear staining (K562; K562, 48h, conc 0.3 (µM)): 0
- Hoechst 33342 nuclear staining (K562; K562, 48h, conc 1 (µM)): 1 (1 relating to weak activity comprising less than 50% of the cells)
- Hoechst 33342 nuclear staining (K562; K562, 48h, conc 3 (µM)): 2 (score 2 relating to strong activity comprising more than 50% of the cells)
- Hoechst 33342 nuclear staining (K562; K562, 48h, conc 10 (µM)): 2 (score 2 relating to strong activity comprising more than 50% of the cells)
- Hoechst 33342 nuclear staining (Jurkat [3]; 24h, conc 0.3 (µM)): 1 (1 relating to weak activity comprising less than 50% of the cells)
- Hoechst 33342 nuclear staining (Jurkat [3]; 24h, conc 1 (µM)): 1 (1 relating to weak activity comprising less than 50% of the cells)
- Hoechst 33342 nuclear staining (Jurkat [3]; 24h, conc 3 (µM)): 2 (score 2 relating to strong activity comprising more than 50% of the cells)
- Hoechst 33342 nuclear staining (Jurkat [3]; 24h, conc 10 (µM)): 2 (score 2 relating to strong activity comprising more than 50% of the cells)
- Hoechst 33342 nuclear staining (Jurkat [3]; 48h, conc 0.3 (µM)): 2 (score 2 relating to strong activity comprising more than 50% of the cells)
- Hoechst 33342 nuclear staining (Jurkat [3]; 48h, conc 1 (µM)): 2 (score 2 relating to strong activity comprising more than 50% of the cells)
- Hoechst 33342 nuclear staining (Jurkat [3]; 48h, conc 3 (µM)): 2 (score 2 relating to strong activity comprising more than 50% of the cells)
- Hoechst 33342 nuclear staining (Jurkat [3]; 48h, conc 10 (µM)): 2 (score 2 relating to strong activity comprising more than 50% of the cells)
- percentage of positively stained cells (AnnexinV/7-AAD staining) (HeLa [4]): 1 (score 1 relates to more than 10% but less than 50%)
- percentage of positively stained cells (AnnexinV/7-AAD staining) (Jurkat [5]): 0 (Score 0 relates to less than 10%)
- percentage of positively stained cells (AnnexinV/7-AAD staining) (Ramos [6]): 1 (score 1 relates to more than 10% but less than 50%)

Molecule: [2-(3-Methoxy-6,6-dimethyl-5,6-dihydro-6a,7,12-triaza-dibenzofluoren-2-yloxy)-ethyl]-dimethyl-amine [No. 6]
- Hoechst 33342 nuclear staining (A20 [7]; A20, 24h, conc 0.3 (µM)): 0
- Hoechst 33342 nuclear staining (A20 [7]; A20, 24h, conc 1 (µM)): 0
- Hoechst 33342 nuclear staining (A20 [7]; A20, 24h, conc 3 (µM)): 0
- Hoechst 33342 nuclear staining (A20 [7]; A20, 24h, conc 10 (µM)): 0
- Hoechst 33342 nuclear staining (A20 [7]; A20, 48h, conc 0.3 (µM)): 0
- Hoechst 33342 nuclear staining (A20 [7]; A20, 48h, conc 1 (µM)): 0
- Hoechst 33342 nuclear staining (A20 [7]; A20, 48h, conc 3 (µM)): 0
- Hoechst 33342 nuclear staining (A20 [7]; A20, 48h, conc 10 (µM)): 2 (score 2 relating to strong activity comprising more than 50% of the cells)
- percentage of positively stained cells (AnnexinV/7-AAD staining) (A20 [1]): 2 (score 2 relates to more than 50% positivity)
- Hoechst 33342 nuclear staining (HeLa [2]; 24h, conc 0.3 (µM)): 0
- Hoechst 33342 nuclear staining (HeLa [2]; 24h, conc 1 (µM)): 0
- Hoechst 33342 nuclear staining (HeLa [2]; 24h, conc 3 (µM)): 0
- Hoechst 33342 nuclear staining (HeLa [2]; 24h, conc 10 (µM)): 2 (score 2 relating to strong activity comprising more than 50% of the cells)
- Hoechst 33342 nuclear staining (HeLa [2]; 48h, conc 0.3 (µM)): 0
- Hoechst 33342 nuclear staining (HeLa [2]; 48h, conc 1 (µM)): 0
- Hoechst 33342 nuclear staining (HeLa [2]; 48h, conc 3 (µM)): 0
- Hoechst 33342 nuclear staining (HeLa [2]; 48h, conc 10 (µM)): 2 (score 2 relating to strong activity comprising more than 50% of the cells)
- Hoechst 33342 nuclear staining (K562; K562, 24h, conc 0.3 (µM)): 0
- Hoechst 33342 nuclear staining (K562; K562, 24h, conc 1 (µM)): 0
- Hoechst 33342 nuclear staining (K562; K562, 24h, conc 3 (µM)): 0
- Hoechst 33342 nuclear staining (K562; K562, 24h, conc 10 (µM)): 2 (score 2 relating to strong activity comprising more than 50% of the cells)
- Hoechst 33342 nuclear staining (K562; K562, 48h, conc 0.3 (µM)): 0
- Hoechst 33342 nuclear staining (K562; K562, 48h, conc 1 (µM)): 0
- Hoechst 33342 nuclear staining (K562; K562, 48h, conc 3 (µM)): 0
- Hoechst 33342 nuclear staining (K562; K562, 48h, conc 10 (µM)): 2 (score 2 relating to strong activity comprising more than 50% of the cells)
- Hoechst 33342 nuclear staining (Jurkat [3]; 24h, conc 0.3 (µM)): 0
- Hoechst 33342 nuclear staining (Jurkat [3]; 24h, conc 1 (µM)): 0
- Hoechst 33342 nuclear staining (Jurkat [3]; 24h, conc 3 (µM)): 0
- Hoechst 33342 nuclear staining (Jurkat [3]; 24h, conc 10 (µM)): 2 (score 2 relating to strong activity comprising more than 50% of the cells)
- Hoechst 33342 nuclear staining (Jurkat [3]; 48h, conc 0.3 (µM)): 0
- Hoechst 33342 nuclear staining (Jurkat [3]; 48h, conc 1 (µM)): 2 (score 2 relating to strong activity comprising more than 50% of the cells)
- Hoechst 33342 nuclear staining (Jurkat [3]; 48h, conc 3 (µM)): 2 (score 2 relating to strong activity comprising more than 50% of the cells)
- Hoechst 33342 nuclear staining (Jurkat [3]; 48h, conc 10 (µM)): 2 (score 2 relating to strong activity comprising more than 50% of the cells)
- Hoechst 33342 nuclear staining (Ramos [8]; conc 0.3 (µM)): 0
- Hoechst 33342 nuclear staining (Ramos [8]; conc 1 (µM)): 0
- Hoechst 33342 nuclear staining (Ramos [8]; conc 3 (µM)): 0
- Hoechst 33342 nuclear staining (Ramos [8]; conc 10 (µM)): 2 (score 2 relating to strong activity comprising more than 50% of the cells)
- percentage of positively stained cells (AnnexinV/7-AAD staining) (HeLa [4]): 2 (score 2 relates to more than 50% positivity)
- percentage of positively stained cells (AnnexinV/7-AAD staining) (Jurkat [5]): 2 (score 2 relates to more than 50% positivity)
- percentage of positively stained cells (AnnexinV/7-AAD staining) (Ramos [6]): 2 (score 2 relates to more than 50% positivity)
